{
  "source": "patent US10265327B2",
  "about": "“V1A antagonists to treat phase shift sleep disorders” (Hoffmann-La Roche Inc., priority 2013, dated 2019)",
  "key": {"[1]": {"molecular_target": "T1, human V1b receptor (hV1b) (Homo sapiens, UniProt P47901)", "T1 construct": "expressed in transfected cells; host or cells: HEK cells, transient transfection; membrane preparation", "T1 sequence (P47901 1-424)": "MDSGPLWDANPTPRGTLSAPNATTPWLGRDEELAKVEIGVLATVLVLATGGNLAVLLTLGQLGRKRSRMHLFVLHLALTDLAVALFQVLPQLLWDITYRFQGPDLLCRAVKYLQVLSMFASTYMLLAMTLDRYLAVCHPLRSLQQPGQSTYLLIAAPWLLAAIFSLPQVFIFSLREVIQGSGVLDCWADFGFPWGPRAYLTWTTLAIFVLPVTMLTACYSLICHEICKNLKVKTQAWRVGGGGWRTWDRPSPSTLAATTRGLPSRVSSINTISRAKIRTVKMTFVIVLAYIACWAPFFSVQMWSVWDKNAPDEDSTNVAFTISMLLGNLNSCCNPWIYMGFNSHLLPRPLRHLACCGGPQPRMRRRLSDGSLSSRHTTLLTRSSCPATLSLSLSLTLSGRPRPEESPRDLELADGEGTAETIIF", "assay": "Radioligand binding assay (3H-AVP, SPA), human V1b", "conditions": "(n); 1 nM 3H-AVP; read-out: pKi V1b Human (converted)", "method": "(§1) The test compound was initially dissolved in DMSO at a concentration of 10 mM. Subsequent dilutions were made in assay buffer with a maximum final concentration of 0.2% DMSO.\n(§2) Recombinant vasopressin V1a (human: hV1a; mouse: mV1a), V1b (human: hV1b) were independently expressed in human embryonic kidney (HEK) cells using transient transfection. The cell membranes expressing the various receptors were prepared by homogenizing (using Polytron homogenizer) the cell culture pellet in lysis buffer (50 mM HEPES, 1 mM EDTA, 10 mM MgCl2, pH 7.4 with protease inhibitors), then centrifuging the resulting suspension at 500 g for 20 min at 4° C. The supernatant was subsequently re-centrifuged at 43,000 g for 1 hour at 4° C. […] The concentration of protein was determined, and the membranes were aliquoted and stored at −80° C. until further use.\n(§3) All radioligand binding assays were carried out in 96-well plates in the presence of 1 nM ^3H-AVP (vasopressin) radioligand, and 10 concentrations of test compound (ranging from 27 μM-1 nM or 2.7 μM-0.1 nM for hV1a binding). […] Filtration assays were terminated by rapid filtration under vacuum through GF/C filters, presoaked for 5 min with buffer B containing Tris 50 mM, MgCl2 5 mM, 0.1% BSA (pH 7.4), followed by 5×0.4 ml washes of ice-cold buffer B. For both SPA and filtration plates, bound ligand was determined using a Packard Topcount scintillation counter. […]"}, "[2]": {"molecular_target": "T2, mouse V1a receptor (mV1a) (Mus musculus, UniProt Q62463)", "T2 construct": "expressed in transfected cells; host or cells: HEK cells, transient transfection; membrane preparation", "T2 sequence (Q62463 whole entry)": "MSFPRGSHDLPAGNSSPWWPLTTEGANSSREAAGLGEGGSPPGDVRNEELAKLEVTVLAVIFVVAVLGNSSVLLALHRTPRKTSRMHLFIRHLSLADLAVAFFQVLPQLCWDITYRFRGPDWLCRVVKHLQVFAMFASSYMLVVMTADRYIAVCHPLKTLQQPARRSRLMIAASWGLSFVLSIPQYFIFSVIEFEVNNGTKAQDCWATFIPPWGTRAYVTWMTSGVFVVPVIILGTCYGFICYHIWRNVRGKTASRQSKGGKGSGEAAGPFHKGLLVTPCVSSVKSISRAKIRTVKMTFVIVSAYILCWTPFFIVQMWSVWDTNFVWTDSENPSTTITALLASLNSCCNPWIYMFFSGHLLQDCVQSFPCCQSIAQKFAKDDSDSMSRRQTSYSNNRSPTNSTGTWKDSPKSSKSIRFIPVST", "assay": "Radioligand binding assay (3H-AVP, filtration), mouse V1a", "conditions": "Ki ± SEM (n); 1 nM 3H-AVP", "method": "as §1, §2, §3"}},
  "data": [
    {"smiles": "CN1Cc2cc(Cl)ccc2-n2c(nnc2[C@H]2CC[C@H](Oc3ccccn3)CC2)C1", "note": "[Example 1, trans-8-chloro-5-methyl-1-(4-pyridin-2-yloxycyclohexyl)-4,6-dihydro-[1,2,4]triazolo[4,3-a][1,4]benzodiazepine]", "values": [
      {"measurement": "Ki", "setting": "[1]", "result": "> 31600", "unit": "nM"},
      {"measurement": "Ki", "setting": "[2]", "result": "77 ± 2", "unit": "nM"}
    ]}
  ]
}
